Experimental data taken from patent publication US11767303B2, “Compounds and methods for inhibiting viral replication and methods of treating and preventing flaviviral infections” (priority 2020, dated 2023).
“Also recorded” adds a separate entry of the source.

Columns and labels:
[1] = test system: ZIKV; assay: Immunofluorescence assay of viral protein production in A549 cells; assay type: cell-based, Zika virus; details: IFA with anti-E 4G2
Method: Immunofluorescence Assay. The immunofluorescence assay was performed using ZIKV-infected cells treated with DMSO or JMX0207, as described previously. Li et al., “Existing Drugs as Broad-Spectrum and Potent Inhibitors for Zika Virus by Targeting NS2B-NS3 Interaction,” Cell Res. 27:1046-1064 (2017); Li et al., “Erythrosin B is a Potent and Broad-Spectrum Orthosteric Inhibitor of the Flavivirus NS2B-NS3 Protease,” Antiviral Res. 150:217-225 (2018), which are hereby incorporated in their entirety. A mouse monoclonal pan anti-E antibody 4G2 (ATCC) and a DyLight® 488 goat anti-mouse IgG (ImmunoReagents, Inc.) were used to monitor viral E protein expression, as described previously. Li et al., “Existing Drugs as Broad-Spectrum and Potent Inhibitors for Zika Virus by Targeting NS2B-NS3 Interaction,” Cell Res. 27:1046-1064 (2017); Li et al., “Erythrosin B is a Potent and Broad-Spectrum Orthosteric Inhibitor of the Flavivirus NS2B-NS3 Protease,” Antiviral Res. 150:217-225 (2018), which are hereby incorporated in their entirety.

[2] = test system: ZIKV strain PRVABC59 or ZIKV-Venus; assay: ZIKV infection of 3D mini-brain organoids; assay type: cell-based, Zika virus; details: 1.5 μM
Source text: Culturing of human iPSCs. Human iPSC F11350.1 culture was maintained in feed-free conditions using mTeSR1 medium (StemCell Technologies #85851) with 5× supplement (StemCell Technologies #85852). Cells were maintained on six-well plates coated with human embryonic stem cell-qualified Matrigel at a 1:60 dilution (Corning Catalog #354277) and passaged with ReLeSR (StemCell Technologies #05872). Cortical 3D organoids were generated based on the protocol described by Yoon et al. Yoon et al., “Reliability of Human Cortical Organoid Generation,” Nat. Methods. […] Briefly, iPSCs were dissociated with accutase (ThermoFisher #A1110501) and then plated at a density of 3×10^6 cells per well in AggreWell 800 24-well plate (StemCell Technologies #34811) in Essential 8™ medium (ThermoFisher #A1517001) supplemented with 10 μM rock inhibitor (Tocris #Y27632). The plate was centrifuged at 100×g for 3 min and incubated at 37° C. overnight. […]
To evaluate if JMX0207 protects organoids from ZIKV infections, a full-length infectious ZIKV clone expressing Venus fluorescent protein (ZIKV-Venus) was first generated. […] ZIKV infection was quantified by a plaque forming unit (PFU) assay at 5 dpi and by fluorescence imaging at 7 dpi, respectively. […]

O=C(Nc1ccc([N+](=O)[O-])cc1Cl)c1cccc([N+](=O)[O-])c1O [JMX0207, N-(2-Chloro-4-nitrophenyl)-2-hydroxy-3-nitrobenzamide]
ZIKV antigen production [1]: greatly reduced ZIKV antigen production in A549 cells in a dose-dependent manner | ZIKV infection of 3D organoid ([2]; MOI 1, imaging/immunostaining): completely abolished ZIKV infection; also recorded: nearly completely protected the organoids from ZIKV infection | ZIKV production from 3D organoids ([2]; PFU assay at 5 dpi): ZIKV production was also significantly inhibited
